Experimental data taken from patent US20050176685A1 (priority 2002, published 2005).

Assays:
vitamin D receptor = target: T1, vitamin D receptor (Homo sapiens, UniProt P11473); conditions: compared with 1α,25-dihydroxy-cholecalciferol; cited from earlier work
T1 sequence (P11473 1-427): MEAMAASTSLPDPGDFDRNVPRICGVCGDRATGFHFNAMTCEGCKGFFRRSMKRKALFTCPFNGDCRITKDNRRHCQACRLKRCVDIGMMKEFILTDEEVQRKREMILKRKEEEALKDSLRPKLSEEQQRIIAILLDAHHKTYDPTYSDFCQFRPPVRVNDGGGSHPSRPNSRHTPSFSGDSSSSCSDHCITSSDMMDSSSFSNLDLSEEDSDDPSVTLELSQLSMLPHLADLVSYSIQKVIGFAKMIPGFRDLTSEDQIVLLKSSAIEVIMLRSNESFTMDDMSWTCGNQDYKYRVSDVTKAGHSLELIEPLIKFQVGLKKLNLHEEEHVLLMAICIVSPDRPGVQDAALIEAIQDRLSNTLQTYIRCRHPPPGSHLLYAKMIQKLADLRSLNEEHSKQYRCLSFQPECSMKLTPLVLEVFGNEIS

[1] = 50 micrograms equivalent to about 70 micrograms (2800 IU) of vitamin D3; cited from earlier work

Row | SMILES | Intrinsic activity relative to 1α,25-dihydroxy-cholecalciferol (vitamin D receptor) | Potency relative to vitamin D3 [1] | Progression of vertebral deformity (compared to placebo patients) | Decrease in the risk of vertebral fractures (compared to placebo, statistically significant, patients with fractures) | Reduction in vertebral fracture rate per 100 patients (total number of vertebral fractures, compared to placebo)
1 | C=C1CC[C@H](O)C/C1=C/C=C1\CCC[C@]2(C)[C@@H]([C@H](C)CCCC(C)(C)O)CC[C@@H]12 [25-hydroxy-cholecalciferol] | about 100 fold lower | about 1.4 times | – | – | –
2 | NCCCC(O)(P(=O)(O)O)P(=O)(O)O [alendronate, 4-Amino-1-hydroxybutylidene-1,1-bisphosphonic acid monosodium trihydrate] | – | – | statistically significant decrease | at least 40% | at least 50%
